Reference: paper PMC3274588 (The Plant Journal, 2011)
Numbering of substitutions follows the chain as printed. Where two headings read alike, the source gives them in different places.

Columns and labels:
[1] = biological target: T1, ACD2 (ACCELERATED CELL DEATH 2; ACD2^40-320; Red Chlorophyll Catabolite Reductase) (Arabidopsis thaliana, UniProt Q8LDU4); assay: intrinsic tryptophan fluorescence quenching; type: binding
T1 sequence (Q8LDU4 40-319): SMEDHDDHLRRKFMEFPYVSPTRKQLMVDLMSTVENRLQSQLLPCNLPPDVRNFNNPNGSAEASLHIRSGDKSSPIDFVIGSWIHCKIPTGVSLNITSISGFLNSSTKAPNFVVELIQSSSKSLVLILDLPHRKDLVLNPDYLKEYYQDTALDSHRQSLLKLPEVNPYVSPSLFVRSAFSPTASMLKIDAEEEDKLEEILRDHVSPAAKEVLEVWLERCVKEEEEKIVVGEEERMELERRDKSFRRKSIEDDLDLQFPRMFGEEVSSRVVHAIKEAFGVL

[2] = biological target: T2, ACD2 (ACCELERATED CELL DEATH 2; ACD2^40-320; Red Chlorophyll Catabolite Reductase) (Arabidopsis thaliana, UniProt Q8LDU4, E154A/D291H); assay: intrinsic tryptophan fluorescence quenching; type: binding; conditions: 0.1 μM protein, 50 mM Na2HPO4 pH 8.0, 25 mM NaCl, 22°C, excitation 296 nm
T2 sequence (Q8LDU4 40-319 E154A/D291H): T1 sequence (Q8LDU4 40-319) with E115A, D252H

SMILES | Kd [1] [nM] | Kd [2] [nM] | Kd ([1]; 0.1 μM protein, 50 mM Na2HPO4 pH 8.0, 25 mM NaCl, 22°C, excitation 296 nm) [nM]
C=CC1=C(C)c2cc3[nH]c(cc4nc(cc5[nH]c(cc1n2)c(C)c5CCC(=O)O)C(CCC(=O)O)=C4C)c(C)c3C=C [PPIX] | 310 ± 20 | – | –
C=CC1=C(C)/C(=C/C2=NC(=C3\c4[nH]c(Cc5[nH]c(C=O)c(C)c5CC)c(C)c4C(=O)[C@@H]3C(=O)OC)/[C@@H](CCC(=O)O)[C@@H]2C)NC1=O [RCC] | – | 340 ± 30 | 360 ± 30
